Test results: the NIST ThermoML archive (doi:10.1021/je060124c)

Assay: mn = molality of the nth substance listed, in mol/kg
Settings: Liquid, Capillary tube (Ostwald / Ubbelohde) method

[Cl-].[Li+] [lithium chloride] + O
viscosity [mPa·s]
Settings	100 kPa	10000 kPa	20000 kPa	40000 kPa
298.15 K, m1 = 0.0473	0.8971	0.8975	0.898	0.899
298.15 K, m1 = 0.1185	0.907	0.9075	0.908	0.909
298.15 K, m1 = 0.4814	0.9559	0.9562	0.957	0.958
298.15 K, m1 = 1.242	1.062	1.062	1.062	1.062
298.15 K, m1 = 2.621	1.289	1.29	1.291	1.292
298.15 K, m1 = 5.897	1.925	1.926	1.927	1.928
298.15 K, m1 = 7.863	2.535	2.536	2.537	2.538
298.15 K, m1 = 10.11	3.426	3.427	3.428	3.429
298.15 K, m1 = 12.7	5.414	5.416	5.418	5.42
298.15 K, m1 = 16.39	9.44	9.443	9.449	9.451
323.15 K, m1 = 0.0473	0.5513	0.5535	0.5551	0.5594
323.15 K, m1 = 0.1185	0.5573	0.5599	0.5618	0.5665
323.15 K, m1 = 0.4814	0.5884	0.5905	0.5927	0.5974
323.15 K, m1 = 1.242	0.6546	0.657	0.66	0.66
323.15 K, m1 = 2.621	0.7967	0.8	0.8028	0.8094
323.15 K, m1 = 5.897	1.206	1.21	1.215	1.224
323.15 K, m1 = 7.863	1.576	1.582	1.588	1.601
323.15 K, m1 = 10.11	2.116	2.123	2.131	2.147
323.15 K, m1 = 12.7	3.121	3.131	3.143	3.167
323.15 K, m1 = 16.39	5.173	5.19	5.209	5.249
348.15 K, m1 = 0.0473	0.381	0.3839	0.387	0.392
348.15 K, m1 = 0.1185	0.3851	0.388	0.391	0.3968
348.15 K, m1 = 0.4814	0.4072	0.4099	0.4128	0.4189
348.15 K, m1 = 1.242	0.4536	0.4575	0.462	0.462
348.15 K, m1 = 2.621	0.5541	0.5583	0.5621	0.5704
348.15 K, m1 = 5.897	0.8423	0.8484	0.8546	0.8667
348.15 K, m1 = 7.863	1.102	1.109	1.117	1.133
348.15 K, m1 = 10.11	1.466	1.476	1.487	1.507
348.15 K, m1 = 12.7	2.075	2.09	2.104	2.134
348.15 K, m1 = 16.39	3.293	3.316	3.339	3.386
370.2 K, m1 = 2.621	0.428	0.4328	0.4367	0.4449
370.4 K, m1 = 7.863	0.8587	0.867	0.8747	0.8907
370.45 K, m1 = 10.11	1.127	1.138	1.148	1.169
370.55 K, m1 = 12.7	1.53	1.544	1.559	1.587
370.7 K, m1 = 5.897	0.6536	0.6594	0.666	0.6781
371.25 K, m1 = 1.242	0.3462	0.3496	0.353	0.353
371.43 K, m1 = 0.4814	0.3099	0.313	0.3159	0.3217
372.06 K, m1 = 0.1185	0.2906	0.2912	0.2961	0.3015
372.33 K, m1 = 0.0473	0.2867	0.2894	0.2921	0.2975
372.4 K, m1 = 16.39	2.308	2.329	2.351	2.394
397.2 K, m1 = 5.897	–	0.5175	0.5233	0.5352
397.25 K, m1 = 12.7	–	1.162	1.175	1.202
397.6 K, m1 = 10.11	–	0.8792	0.8897	0.9092
398.95 K, m1 = 0.0473	–	0.2258	0.228	0.2335
399.2 K, m1 = 16.39	–	1.71	1.73	1.769
399.31 K, m1 = 7.863	–	0.6675	0.6758	0.6916
399.72 K, m1 = 2.621	–	0.3286	0.3327	0.3409
399.74 K, m1 = 0.1185	–	0.2261	0.2292	0.2339
399.75 K, m1 = 0.4814	–	0.24	0.243	0.2483
400.25 K, m1 = 1.242	–	0.2663	0.2696	0.2696
420.32 K, m1 = 0.4814	–	0.2047	0.2074	0.2127
421.03 K, m1 = 0.1185	–	0.1915	0.1941	0.199
421.96 K, m1 = 5.897	–	0.4291	0.435	0.4463
422.4 K, m1 = 1.242	–	0.2248	0.2281	0.2281
422.51 K, m1 = 10.11	–	0.7257	0.7354	0.7544
423.8 K, m1 = 12.7	–	0.9216	0.9345	0.9595
424.5 K, m1 = 16.39	–	1.333	1.351	1.386
424.51 K, m1 = 7.863	–	0.5562	0.564	0.5785
424.52 K, m1 = 0.0473	–	0.1848	0.1879	0.1928
425.84 K, m1 = 2.621	–	0.2701	0.2739	0.2812
446.9 K, m1 = 12.7	–	0.7773	0.7897	0.8123
447.18 K, m1 = 5.897	–	0.3666	0.3725	0.384
448.7 K, m1 = 10.11	–	0.6126	0.622	0.6415
448.75 K, m1 = 0.1185	–	0.1599	0.1628	0.1675
449.16 K, m1 = 0.0473	–	0.1575	0.16	0.1655
449.75 K, m1 = 16.39	–	1.091	1.108	1.141
449.82 K, m1 = 7.863	–	0.4786	0.4862	0.5006
450.7 K, m1 = 1.242	–	0.1876	0.1908	0.1908
450.74 K, m1 = 0.4814	–	0.1681	0.1707	0.1758
452.54 K, m1 = 2.621	–	0.2292	0.2329	0.2399
470.42 K, m1 = 1.242	–	0.1686	0.1717	0.1717
471.5 K, m1 = 5.897	–	0.322	0.3277	0.3385
471.52 K, m1 = 16.39	–	0.9346	0.951	0.982
472.03 K, m1 = 0.1185	–	0.1403	0.143	0.1477
472.3 K, m1 = 7.863	–	0.4267	0.4344	0.4487
472.52 K, m1 = 12.7	–	0.6626	0.6742	0.6964
473.7 K, m1 = 0.4814	–	0.1482	0.1509	0.1559
473.8 K, m1 = 10.11	–	0.5335	0.543	0.562
474.25 K, m1 = 0.0473	–	0.137	0.1394	0.1441
476.22 K, m1 = 2.621	–	0.2026	0.2064	0.2135
494.2 K, m1 = 1.242	–	0.1501	0.1532	0.1532
497.12 K, m1 = 2.621	–	0.1843	0.188	0.1951
497.2 K, m1 = 16.39	–	0.807	0.8237	0.8543
497.3 K, m1 = 0.4814	–	0.1323	0.135	0.1401
497.3 K, m1 = 7.863	–	0.3824	0.3901	0.4047
497.83 K, m1 = 0.0473	–	0.122	0.1245	0.1291
498.45 K, m1 = 0.1185	–	0.1233	0.1256	0.1303
499.3 K, m1 = 5.897	–	0.282	0.288	0.2988
499.52 K, m1 = 10.11	–	0.4719	0.4813	0.5
499.82 K, m1 = 12.7	–	0.5736	0.5853	0.6075
520.61 K, m1 = 1.242	–	0.1336	0.137	0.137
520.7 K, m1 = 7.863	–	0.3496	0.358	0.3733
521.37 K, m1 = 0.1185	–	0.111	0.1137	0.1187
521.42 K, m1 = 0.4814	–	0.119	0.1219	0.1271
522.35 K, m1 = 0.0473	–	0.1093	0.1125	0.1168
522.42 K, m1 = 2.621	–	0.1665	0.1706	0.1781
522.94 K, m1 = 10.11	–	0.4262	0.4365	0.4263
523.03 K, m1 = 12.7	–	0.5136	0.5262	0.5488
523.82 K, m1 = 16.39	–	0.7062	0.722	0.754
524.86 K, m1 = 5.897	–	0.2531	0.26	0.2718
545.92 K, m1 = 1.242	–	0.1203	0.124	0.124
547.5 K, m1 = 0.1185	–	0.0993	0.1018	0.1076
547.82 K, m1 = 16.39	–	0.6309	0.648	0.682
548.75 K, m1 = 0.4814	–	0.106	0.1091	0.1148
548.9 K, m1 = 12.7	–	0.4554	0.4693	0.494
549.25 K, m1 = 0.0473	–	0.0974	0.1009	0.106
549.32 K, m1 = 5.897	–	0.2338	0.2411	0.2537
550.4 K, m1 = 2.621	–	0.1487	0.1533	0.1615
573.1 K, m1 = 0.1185	–	0.0885	0.0922	0.0982
573.7 K, m1 = 5.897	–	0.2138	0.2229	0.239
573.81 K, m1 = 12.7	–	0.4053	0.422	0.449
573.86 K, m1 = 2.621	–	0.1352	0.1409	0.1502
574.03 K, m1 = 0.4814	–	0.0947	0.0986	0.1051
574.1 K, m1 = 0.0473	–	0.0871	0.0907	0.0966
574.21 K, m1 = 1.242	–	0.1064	0.111	0.111
574.23 K, m1 = 16.39	–	0.555	0.576	0.615
